“And” between values parts separate entries of the source, which are not always exact repeats. Equal values may be shown once.
Key:
NDM-1 [1] = target: T1, NDM-1 (Klebsiella pneumoniae, UniProt C7C422); assay: Zinc displacement analysis by ICP-MS; type: binding; settings: Zn-bound NDM-1 20 μM + increasing CBS
Experimental: To monitor the displacement of Zn(II) by Bi(III), ICP-MS was employed to accurately quantify ^209Bi and ^66Zn contents in various purified NDM-1 samples. Purified Zn-bound-NDM-1 (20 μM) dissolved in trace-metal-free ICP-MS buffer containing 50 mM HEPES, pH 7.0, was incubated with various concentrations of CBS at 25 °C for 5 h with mild shaking. The samples were subsequently dialyzed in ICP-MS buffer to remove unbound-metal ions and were then acidified and subsequently analyzed using an ICP-MS spectrometer (Agilent 7500a, Agilent Technologies, CA, USA) with ^115In as an internal standard for ^209Bi, ^66Zn, and ^34S contents, which are used to quantify protein concentration.
Target sequence in this assay (C7C422 29-270, looked up, species assumed): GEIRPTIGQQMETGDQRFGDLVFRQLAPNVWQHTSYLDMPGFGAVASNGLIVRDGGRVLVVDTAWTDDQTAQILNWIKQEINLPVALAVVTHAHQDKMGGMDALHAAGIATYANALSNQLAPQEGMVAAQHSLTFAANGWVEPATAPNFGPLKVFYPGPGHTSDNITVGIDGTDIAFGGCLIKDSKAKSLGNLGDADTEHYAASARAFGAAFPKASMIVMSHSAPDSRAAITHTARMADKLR

NDM-BL21 = assay: Microdilution MIC assay; type: cell-based, E. coli
From the text: (§1) Other procedures were kept strictly the same.

NDM-Rosetta = assay: Microdilution MIC assay; type: cell-based, E. coli
From the text: as §1

E. coli Rosetta(DE3) = assay: Microdilution MIC assay; type: cell-based
From the text: as §1

NDM-HK [2] = assay: Time kill assay; type: cell-based, E. coli; settings: MER 24 μg mL^-1 + CBS 64 μg mL^-1, 24 h, exponential phase
Experimental: Time kill assay was used to further explore the synergy between MER and Bi(III) compounds. In a typical assay, NDM-HK was cultured overnight and diluted 1:250 into LB broth at 37 °C for 3 h to reach log phase. The initial bacterial density was adjusted to ~10^7 CFU mL^−1 and then exposed to MER, Bi(III) compounds either alone or in combination. LB broth with no drugs served as a control. Aliquots of bacterial suspension were withdrawn at different time intervals (0, 1, 2, 4, 6, 8, and 24 h) for inspection of bacterial viability by agar plating. The concentrations of the drugs used in the test are 24 µg mL^−1 for MER, 64 µg mL^−1 for CBS, and 32 µg mL^−1 for Bi(NAC)3. Data from three independent experiments were averaged and plotted as log10 CFU mL^−1 vs. time (h) for each time point over 24 h. All assays were triplicated and performed three times on different days.

NDM-1 [3] = target: T1, NDM-1; type: cell-based; parameters: endogenous in cells; host or cells: E. coli clinical isolate NDM-HK; settings: NDM-HK cultured with 100 µM compound; control 50.1 °C
Experimental: The cellular thermal shift assay was performed according to a standard method. Clinical isolate of NDM-1-positive E. coli (NDM-HK) was cultured overnight in the absence or presence of 100 µM Bi(III) compounds, i.e., CBS, Bi(NAC)3, Bi(NIT)3. The bacterial pellets were harvested and washed with PBS for 4 times. The cell suspensions were aliquoted into PCR tubes and heat treatment was performed at the designated temperature ranging from 40 °C to 70 °C for 3 min in a 96-well thermal cycler. The tubes were cooled immediately at room temperature for another 3 min after heating and the heating procedures were repeated for three cycles. For the cell lysis, the samples were frozen–thawed for two cycles in liquid nitrogen and thermal cycler set at 25 °C. The samples were vortexed gently after each cycle and were centrifuged at 20,000 × g to obtain the supernatant when the second cycle was finished. All the samples were subjected to western blot analysis for detection and quantification of NDM-1 content as described above.
Target sequence in this assay (C7C422 29-270 limits assumed): as the sequence (C7C422 29-270, looked up, species assumed) above

NDM-1-C208A = NDM-1-C208A (Klebsiella pneumoniae, UniProt C7C422, C208A); assay: Cellular thermal shift assay, mutant strain C208A-Rosetta; type: cell-based, E. coli; settings: control 48.24 °C
Sequence of NDM-1-C208A (C7C422 29-270 C208A): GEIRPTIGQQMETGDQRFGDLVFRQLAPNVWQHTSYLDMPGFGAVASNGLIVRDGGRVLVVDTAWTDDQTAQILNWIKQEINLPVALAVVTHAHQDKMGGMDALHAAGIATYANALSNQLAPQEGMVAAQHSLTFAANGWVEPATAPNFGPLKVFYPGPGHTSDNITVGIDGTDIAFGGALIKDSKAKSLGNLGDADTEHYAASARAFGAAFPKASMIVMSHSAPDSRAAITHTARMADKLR

VIM-2 = VIM-2 (Escherichia coli, UniProt Q5U7L7); type: biochemical; settings: MER substrate
Experimental: (§2) Freshly prepared 50 nM of Zn2-NDM-1, Zn2-VIM-2, or Zn2-IMP-4 in 50 mM HEPES/Na pH 7.0, 100 mM NaCl were first incubated with various concentrations of CBS for 1 h at 25 °C, then mixed with equal volume of 0.2 mM MER. The assay was performed in a 1 cm quartz cuvette using the kinetic mode on a Varian Cary50 UV-visible spectrophotometer at 25 °C. The decrease in absorbance at 300 nm due to ring-opening of MER was monitored every second for a duration of 10 min until the reaction was completed. The initial rates were extracted and calculated from each reaction curves for fitting IC50 curves.

NDM-1 [4] = target: T1, NDM-1; type: biochemical; settings: MER substrate
Experimental: as §2
Target sequence in this assay (C7C422 29-270, looked up, species assumed): as the sequence (C7C422 29-270, looked up, species assumed) above

NDM-HK [5] = assay: Murine peritonitis infection, mucin-assisted model; type: in vivo, BALB/c mice; settings: 2% mucin
From the text: All experiments were approved by, and performed in accordance with the guidelines approved by Committee on the Use of Live Animals in Teaching and Research (CULATR), the University of Hong Kong. A total of 6–8-week-old, female BALB/c mice (18–22 g) were purchased from Charles River Laboratories, Inc. and were used in all mouse studies. The animals were randomized to cages for each experiment.
In mucin-assisted model, for infection with NDM-1-positive bacteria, an overnight culture of NDM-HK was performed 1:250 dilution in 100 mL LB broth and re-grew to about OD600 0.3 in a 500-mL flask after 2.5 h shaking at 37 °C, 250 rpm. Bacterial pellets were collected and washed by PBS buffer three times for further use. Mice were infected intraperitoneally (i.p.) with a dose of 1 × 10^5 CFU of bacteria in PBS supplemented with 2% mucin. […] Twice-daily treatment via i.p. injection was continued throughout the whole experimental course. For the infection with NDM-1-negative bacteria, all the operations of infection were similar to those used for NDM-HK, except that NDM-HK PCV was used as infection-causing bacteria. […] Twice-daily treatment via i.p. injection was continued throughout the whole experimental course. Body weights and mice survival were monitored till endpoint of the experiment.

For colloidal bismuth subcitrate [CBS], the “Bi(III) bound to the enzyme” value (NDM-1 [1]) was 0.96 molar equivalents, the “Zn(II) displaced from NDM-1” value (NDM-1 [1]) was “ca. 2.13 molar equivalents” and the “decrease in MIC of MER in combination with CBS” value (NDM-BL21; NDM-1 positive E. coli BL21(DE3)) was 8 fold. The “MIC of MER in combination with CBS” value (NDM-BL21; NDM-1 positive E. coli BL21(DE3), CBS concentration not stated) was 2 µg/mL, the “MIC of MER in combination with CBS at 16 µg mL-1” value (from here on “MIC of MER … at 16 µg mL-1”) (NDM-BL21; NDM-BL21) was 8 µg/mL and the “MIC of MER in combination with CBS at 32 µg mL-1” value (shortened to “MIC of MER … at 32 µg mL-1”) (NDM-BL21; NDM-BL21) was 4 µg/mL. The “MIC of MER in combination with CBS at 256 µg mL-1” value (“MIC of MER … at 256 µg mL-1” below) (NDM-BL21; NDM-BL21) was 2 µg/mL, the “decrease in MIC of MER in combination with CBS” value (NDM-Rosetta; NDM-1 positive E. coli Rosetta(DE3)) was 8 fold and the “MIC of MER in combination with CBS” value (NDM-Rosetta; NDM-1 positive E. coli Rosetta(DE3), CBS concentration not stated) was 4 µg/mL. For the same substance, the “MIC of MER … at 16 µg mL-1” value (NDM-Rosetta; NDM-Rosetta) was 8 µg/mL, the “MIC of MER … at 32 µg mL-1” value (NDM-Rosetta; NDM-Rosetta) was 4 µg/mL and the “MIC of MER … at 256 µg mL-1” value (NDM-Rosetta; NDM-Rosetta) was 4 µg/mL. For the same substance, the “MIC of MER … at 16 µg mL-1” value (E. coli Rosetta(DE3)) was 0.03 µg/mL, the “MIC of MER … at 32 µg mL-1” value (E. coli Rosetta(DE3)) was 0.03 µg/mL and the “MIC of MER … at 256 µg mL-1” value (E. coli Rosetta(DE3)) was 0.03 µg/mL. For the same substance, the “lowering of NDM-HK population in time kill curves” value (NDM-HK [2]) was “more than 1000 fold”, the “NDM-1 melting temperature, treated group” value (NDM-1 [3]) was 48 °C and the “melting temperature, treated group” value (NDM-1-C208A) was 49.72 °C. The IC50 (VIM-2; VIM-2 50 nM, 1 h preincubation) was 3.54 µM and 3.55 µM, the “maximal inhibition of MBL activity” value (VIM-2; VIM-2, dose-dependent) was “approximately 90%” and the IC50 (NDM-1 [4]; NDM-1 50 nM, 1 h preincubation) was 2.81 ± 0.34 µM. The “maximal inhibition of MBL activity” value (NDM-1 [4]; NDM-1, dose-dependent) was “approximately 90%”, the “protection from death, CBS monotherapy” value (NDM-HK [5]; i.p. twice daily from 4 h post infection, CBS 20 mg kg^−1 (Fig. 4f), within 48 h) was “failed to protect any of the mice from death” and the “mice survival rate, combination therapy of MER and CBS” value (NDM-HK [5]; i.p. twice daily, MER + CBS 20 mg kg^−1 (Fig. 4f)) was 50%.

Reference: paper PMC5789847, “Bismuth antimicrobial drugs serve as broad-spectrum metallo-β-lactamase inhibitors” (Nature Communications, 2018)
